Assay results taken from PubChem BioAssay (NCI).
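Five compound concentrations were applied to cells in 96-well plates for 48 hours; endpoints were derived by simple linear interpolation of the resulting dose-response curve. TGI: concentration producing complete growth inhibition.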

Tests used:
Experiment in all cases: NCI anticancer screen, dose series, 48 h
[1] = system: 786-0 renal
[2] = system: A498 renal
[3] = system: A549 NSCLC
[4] = system: ACHN renal
[5] = system: BT-549 breast
[6] = system: CAKI-1 renal
[7] = system: CCRF-CEM leukemia
[8] = system: COLO 205 colon
[9] = system: DU-145 prostate
[10] = system: EKVX NSCLC
[11] = system: HCC-2998 colon
[12] = system: HCT-116 colon
[13] = system: HCT-15 colon
[14] = system: HL-60(TB) leukemia
[15] = system: HOP-62 NSCLC
[16] = system: HOP-92 NSCLC
[17] = system: HS 578T breast
[18] = system: HT29 colon
[19] = system: IGROV1 ovarian
[20] = system: K-562 leukemia
[21] = system: KM12 colon
[22] = system: LOX IMVI melanoma
[23] = system: M14 melanoma
[24] = system: MALME-3M melanoma
[25] = system: MCF7 breast
[26] = system: MDA-MB-231 breast
[27] = system: MDA-MB-435
[28] = system: MDA-N
[29] = system: MOLT-4 leukemia
[30] = system: NCI-H226 lung
[31] = system: NCI-H23 lung
[32] = system: NCI-H460 lung
[33] = system: NCI-H522 lung
[34] = system: NCI/ADR-RES ovarian
[35] = system: OVCAR-3 ovarian
[36] = system: OVCAR-4 ovarian
[37] = system: OVCAR-5 ovarian
[38] = system: OVCAR-8 ovarian
[39] = system: PC-3 prostate
[40] = system: RPMI-8226 leukemia
[41] = system: RXF 393 renal
[42] = system: SF-268 CNS
[43] = system: SF-295 CNS
[44] = system: SF-539 CNS
[45] = system: SK-MEL-2 melanoma
[46] = system: SK-MEL-28 melanoma
[47] = system: SK-MEL-5 melanoma
[48] = system: SK-OV-3 ovarian
[49] = system: SN12C renal
[50] = system: SNB-19 CNS
[51] = system: SNB-75 CNS
[52] = system: SR leukemia
[53] = system: SW-620 colon
[54] = system: T-47D breast
[55] = system: TK-10 renal
[56] = system: U251 CNS
[57] = system: UACC-257 melanoma
[58] = system: UACC-62 melanoma
[59] = system: UO-31 renal

Measured: TGI

O=C(O)c1ccc(C(=O)Nc2cccc3ccccc23)c(C(=O)O)c1
> 100 µM: [1] | [2] | [3] | [4] | [5] | [6] | [7] | [8] | [9] | [10] | [11] | [12] | [13] | [14] | [15] | [16] | [17] | [18] | [19] | [20] | [21] | [22] | [23] | [24] | [25] | [26] | [27] | [28] | [29] | [30] | [31] | [32] | [33] | [34] | [35] | [36] | [37] | [38] | [39] | [40] | [41] | [42] | [43] | [44] | [45] | [46] | [47] | [48] | [49] | [50] | [51] | [52] | [53] | [54] | [55] | [56] | [57] | [58] | [59]
